According to ChEMBL document CHEMBL3632462, “Synthesis and evaluation of phenoxymethylbenzamide analogues as anti-trypanosomal agents” (Medchemcomm, 2015):

What was measured:
[1] = system: Trypanosoma brucei brucei; experiment: Antitrypanosomal activity against Trypanosoma brucei brucei infected in HEK293 cells assessed as growth inhibition after 72 hrs by Alamar Blue assay; format: functional, organism-based; settings: HEK293, 72 h
[2] = Selectivity index, ratio of IC50 for HEK293 cells to IC50 for Trypanosoma brucei brucei infected in HEK293 cells; format: toxicity, cell-based; settings: human, read-out: Ratio IC50
[3] = system: Trypanosoma brucei rhodesiense; experiment: Antitrypanosomal activity against bloodstream form of Trypanosoma brucei rhodesiense STIB900 assessed as growth inhibition after 70 hrs by resazurin dye-based fluorometric analysis; format: functional, organism-based; settings: STIB900, 70 h
Trypanosoma cruzi = experiment: Antitrypanosomal activity against […] of Trypanosoma cruzi Tulahuen C2C4 infected in rat L6 cells assessed as growth inhibition after 96 hrs by beta-galactosidase reporter gene assay; format: functional, organism-based; settings: Tulahuen C2C4, L6, 96 h
Leishmania donovani = experiment: Antiparasitic activity against amastigote form of Leishmania donovani MHOM/ET/67/L82 assessed as growth inhibition after 70 hrs by resazurin dye-based fluorometric analysis; format: functional, organism-based; settings: MHOM/ET/67/L82, 70 h
Plasmodium falciparum = experiment: Antiparasitic activity against erythrocytic stage of Plasmodium falciparum NF54 assessed as growth inhibition after 48 hrs by [3H]-hypoxanthine incorporation assay; format: functional, organism-based
L6 = experiment: Cytotoxicity against rat L6 cells after 70 hrs by resazurin dye-based fluorometric analysis; format: cell-based; settings: L6, 70 h
[4] = Selectivity index, ratio of IC50 for rat L6 cells to IC50 for bloodstream form of Trypanosoma brucei rhodesiense STIB900; format: toxicity, cell-based; settings: read-out: Ratio IC50

CCOc1ccc(OCc2ccc(C(=O)N3CCOCC3)cc2)cc1
IC50 [1]: 4.2 µM | selectivity ratio [2]: 20

COc1ccc(OCc2ccc(C(=O)N3CCC(C)CC3)cc2)cc1
IC50 [1]: > 50 µM

CCOc1ccc(OCc2ccc(C(=O)N3CCCC(C)C3)cc2)cc1 (stereo not given)
IC50 [1]: 1.15 µM | selectivity ratio [2]: 36 | IC50 [3]: 985 nM | IC50 (Trypanosoma cruzi): 107 µM | IC50 (Leishmania donovani): 35.7 µM | IC50 (Plasmodium falciparum): 22.3 µM | IC50 (L6): 186 µM | selectivity ratio [4]: 190

CCCc1ccc(OCc2ccc(C(=O)N3CCCC(C)C3)cc2)cc1 (stereo not given)
IC50 [1]: > 50 µM

CCCc1ccc(OCc2ccc(C(=O)N3CCCCC3C)cc2)cc1 (stereo not given)
IC50 [1]: 10 µM | selectivity ratio [2]: 8

CCOc1ccc(OCCCCCC(=O)N2CCCCC2C)cc1 (stereo not given)
IC50 [1]: 1.66 µM | selectivity ratio [2]: 50

CCOc1ccc(NCc2ccc(C(=O)N3CCOCC3)cc2)cc1
IC50 [1]: 20.6 µM | selectivity ratio [2]: 4

Cc1ccc(OCc2ccc(C(=O)N3CCCCC3C)cc2)cc1 (stereo not given)
IC50 [1]: 9.2 µM | selectivity ratio [2]: 9

CCCCCCCCCCCCCCCCOP(=O)([O-])OCC[N+](C)(C)C [MILTEFOSINE]
IC50 (Leishmania donovani): 0.572 µM

COc1ccc(OCc2ccc(C(=O)N(C)c3ccccc3)cc2)cc1
IC50 [1]: 18 µM | selectivity ratio [2]: 5

CCOc1ccc(OCc2ccc(C(=O)O)cc2)cc1
IC50 [1]: > 50 µM

CCOc1ccc(OCc2ccc(C(=O)N3CCC(C)CC3)cc2)cc1
IC50 [1]: > 50 µM

CCc1ccc(OCc2ccc(C(=O)N3CCC(C)CC3)cc2)cc1
IC50 [1]: > 50 µM

O=C(Cn1ccnc1[N+](=O)[O-])NCc1ccccc1 [BENZNIDAZOLE]
IC50 (Trypanosoma cruzi): 2.33 µM

CCOc1ccc(OCc2ccc(C(=O)NC(C)C)cc2)cc1
IC50 [1]: > 50 µM

CCOc1ccc(OCCCCCC(=O)N2CCCCC2)cc1
IC50 [1]: 7.35 µM | selectivity ratio [2]: 5

COc1ccc(OCc2ccc(C(=O)N3CCN(C)CC3)cc2)cc1
IC50 [1]: > 50 µM

CCOc1ccc(NCc2ccc(C(=O)N3CCCCC3)cc2)cc1
IC50 [1]: 2.9 µM | selectivity ratio [2]: 29

CCc1ccc(OCc2ccc(C(=O)N3CCOCC3)cc2)cc1
IC50 [1]: 14.8 µM | selectivity ratio [2]: 6

Cc1ccc(OCc2ccc(C(=O)N3CCC(C)CC3)cc2)cc1
IC50 [1]: > 50 µM

CCOc1ccc(OCc2ccc(C(=O)N3CCN(C)CC3)cc2)cc1
IC50 [1]: > 50 µM

CCOc1ccc(OCCCCCC(=O)N(C(C)C)C(C)C)cc1
IC50 [1]: 2.03 µM | selectivity ratio [2]: 41

CCc1ccc(OCc2ccc(C(=O)N3CCN(C)CC3)cc2)cc1
IC50 [1]: > 50 µM
